Data published in patent US4317768A, “Dihydropyridine derivatives as stabilizers for vinyl chloride polymers” (priority 1977, dated 1982).
“Also recorded” adds a separate entry of the source.

Assays:
[1] = Thermostability, rigid co-polymer (d), ventilated oven 210° C.; settings: 0.3 part
Protocol: The study of the static thermostability of vinyl co-polymers was carried out according to the GARDNER method described above and, also in a more detailed manner in British Patent No. 1,489,685.
(d) Rigid co-polymer vinyl chloride-vinylidene chloride
The following compound was prepared:
The sheets were heated in a ventilated oven at 210° C.

[2] = Stabilization of plastified vinyl resins (pressed plates); settings: plastified resin
Protocol: This study was carried out by pressing plates from sheets which had been mixed for 5 minutes at 180° C., the pressing also lasting 5 minutes but at 170° C.
The same parameters as hereabove were studied, namely the duration of the stability of the colour, the duration of the thermostability and the colour of the pressed plate.

[3] = Antioxidant power on a polyvinyl chloride resin, Metrastat oven, 210° C.
Protocol: By direct comparison, on a polyvinyl chloride resin, of the antioxidant power of Compound 1 of the invention and that of an antioxidant known as one of the most valuable and frequently used in polyvinyl chloride, namely 2,6-diterbutyl-4-methyl-phenol.
The antioxidant power of Compound 1 was compared to that of 2,6-diterbutyl-4-methyl-phenol (Compound 2) by using the following resin:
The same trials were carried out in a Metrastat oven at 210° C.

Compound: CC1=C(C(=O)OCc2ccccc2)CC(C(=O)OCc2ccccc2)=C(C)N1 [Compound 21, 2,6-Dimethyl-3,5-dicarbobenzyloxy-1,4-dihydropyridine]
- coloration, GARDNER scale ([1]; 0 min): 1.5
- coloration, GARDNER scale ([1]; 3 min): 2
- coloration, GARDNER scale ([1]; 6 min): 2
- coloration, GARDNER scale ([1]; 9 min): 3
- coloration, GARDNER scale ([1]; 12 min): 7
- coloration, GARDNER scale ([1]; 15 min): 15

Compound: C=CCOC(=O)C1=C(C)NC(C)=C(C(=O)OCC=C)C1 [Compound 1, 2,6-Dimethyl-3,5-dicarboallyloxy-1,4-dihydropyridine]
- influence on stability / basic colour of the plate, in words [2]: favourable influence on the stability of the plate; also recorded: favourable influence on the basic colour
- time of burning (B) ([3]; 0.05 part): 40 '
- coloration, GARDNER scale ([3]; 0.05 part, 0 to 10 min): 1
- coloration, GARDNER scale ([3]; 0.05 part, 10 to 20 min): 1
- coloration, GARDNER scale ([3]; 0.05 part, 20 to 25 min): 1
- coloration, GARDNER scale ([3]; 0.05 part, 25 to 30 min): 1
- coloration, GARDNER scale ([3]; 0.05 part, 35 to 40 min): > 10
- time of burning (B) ([3]; 0.1 part): 38 '
- coloration, GARDNER scale ([3]; 0.1 part, 0 to 10 min): 1
- coloration, GARDNER scale ([3]; 0.1 part, 10 to 20 min): 1
- coloration, GARDNER scale ([3]; 0.1 part, 20 to 25 min): 1
- coloration, GARDNER scale ([3]; 0.1 part, 25 to 30 min): 1
- coloration, GARDNER scale ([3]; 0.1 part, 35 to 40 min): < 10
- time of burning (B) ([3]; 0.2 part): 39 '
- coloration, GARDNER scale ([3]; 0.2 part, 0 to 10 min): 1
- coloration, GARDNER scale ([3]; 0.2 part, 10 to 20 min): 1
- coloration, GARDNER scale ([3]; 0.2 part, 20 to 25 min): 1
- coloration, GARDNER scale ([3]; 0.2 part, 25 to 30 min): 1
- coloration, GARDNER scale ([3]; 0.2 part, 35 to 40 min): < 9
- time of burning (B) ([3]; 0.3 part): 39 '
- coloration, GARDNER scale ([3]; 0.3 part, 0 to 10 min): 1
- coloration, GARDNER scale ([3]; 0.3 part, 10 to 20 min): 1
- coloration, GARDNER scale ([3]; 0.3 part, 20 to 25 min): 1
- coloration, GARDNER scale ([3]; 0.3 part, 25 to 30 min): 1
- coloration, GARDNER scale ([3]; 0.3 part, 35 to 40 min): < 9
- time of burning (B) ([3]; 0.4 part): 38 '
- coloration, GARDNER scale ([3]; 0.4 part, 0 to 10 min): 1
- coloration, GARDNER scale ([3]; 0.4 part, 10 to 20 min): 1
- coloration, GARDNER scale ([3]; 0.4 part, 20 to 25 min): 1
- coloration, GARDNER scale ([3]; 0.4 part, 25 to 30 min): 1
- time of burning (B) ([3]; 0.5 part): 38 '
- coloration, GARDNER scale ([3]; 0.5 part, 0 to 10 min): 1
- coloration, GARDNER scale ([3]; 0.5 part, 10 to 20 min): 1
- coloration, GARDNER scale ([3]; 0.5 part, 20 to 25 min): 1
- coloration, GARDNER scale ([3]; 0.5 part, 25 to 30 min): 1
- time of burning (B) ([3]; 1.0 part): 37 '
- coloration, GARDNER scale ([3]; 1.0 part, 0 to 10 min): 1
- coloration, GARDNER scale ([3]; 1.0 part, 10 to 20 min): 1
- coloration, GARDNER scale ([3]; 1.0 part, 20 to 25 min): 1
- coloration, GARDNER scale ([3]; 1.0 part, 25 to 30 min): 1
- antioxidant power, Compound 1 vs Compound Z, in words ([3]; 210° C.): markedly superior to Compound Z
